# Marks after values point to notes of the source that are not given here.
# Tests used:
# [1] = test system: human peripheral blood lymphocytes; assay: Alkaline comet assay; format: cell-based; conditions: 24 h; CIT 30 µM, CBD 1 µM, bleomycin 1.25 µg/mL
# Experimental: (§1) The experimental design included the establishment of lymphocyte cultures, and the 24 h treatments with the test compounds, performed according to the last OECD recommendations, given in the Test Guideline No. 487—In Vitro Mammalian Cell Micronucleus Test.
# (§2) The selection of specific concentrations of test compounds adhered to the guidelines for in vitro genotoxicity testing using comet assay. […] Solutions used in testing were prepared just prior to treatment by dissolving the test compounds in ethanol (Kemika, Zagreb, Croatia).
# (§3) Two independent trials, with six experimental groups each, were conducted. A total of six replicate cultures for every single experimental group were established. This step was carried out as follows: aliquots of heparinized blood (V = 600 μL per culture) were pipetted into a growth medium RPMI-1640 (Gibco, Grand Island, NY, USA) supplemented with 10% fetal calf serum (Gibco, Grand Island, NY, USA) and antibiotics (penicillin and streptomycin; Sigma-Aldrich, Steinheim, Germany). Lymphocytes were stimulated with a mitogen phytohemagglutinin (Remel, Lenexa, KS, USA) in order to induce cell division prior to exposure to the test chemicals. Cultures were maintained in the humidified atmosphere of 5% CO2 at 37 °C (Heraeus Hera Cell 240 incubator; Langenselbold, Germany).
# (§4) Negative controls (NCs) were non-treated lymphocytes. Solvent controls (SCs) were lymphocytes treated with ethanol (its final concentration in the culture corresponded to 0.03%). Positive controls (PCs) were lymphocytes treated for 24 h with bleomycin at 1.25 µg/mL (according to [69]). The other three groups were lymphocytes exposed to single CIT, single CBD, and their combination (CIT + CBD, at the same concentrations).
# (§5) Treatments with test compounds started 20 h after the initial establishment of the cell cultures and lasted for 24 h. Upon completion of the exposure, aliquots of 100 µL of the treated cultures were pipetted in sterile conditions and used to prepare microgels for the alkaline comet assay. The remaining content of flasks was further processed using Cytokinesis-Block Micronucleus Cytome (CBMN Cyt) Assay.
# [2] = test system: human peripheral blood lymphocytes; assay: Cytokinesis-Block Micronucleus Cytome (CBMN Cyt) Assay; conditions: 24 h, citrinin 30 µM, CBD 1 µM, bleomycin 1.25 µg/mL
# Experimental: as §1, §2, §3, §4, §5
# CBMN Cyt Assay was performed according to standard protocols proposed for micronucleus assay. Upon completion of the exposure, lymphocyte cultures were subjected to centrifugation at 100× g using a benchtop centrifuge (ROTOFIX 32A, Hettich, Tuttlingen, Germany). During this process, cells settled to the bottom of the tube. The growth medium with tested compounds was removed by pipetting, discarded and replaced with a fresh amount of complete growth medium RPMI-1640 that contained Cytochalasin B (cytoB; Sigma-Aldrich, Steinheim, Germany) at a final concentration of 6 µg/mL. This procedure was timed to the 44th hour of lymphocyte cultivation, as that time is a critical point for the addition of cytoB to inhibit cytokinesis and obtain binucleated cells. All treated and control cultures were further maintained in the previously described conditions at 37 °C until the end of the 72nd hour of cultivation, as proposed by protocols. Then, the preparation of microscopic slides started, which included harvesting of cells by centrifugation (100× g, ROTOFIX 32A centrifuge, Hettich, Tuttlingen, Germany), followed by hypotonic treatment (0.075 mol/L KCl; Kemika, Zagreb, Croatia), and a new round of centrifugation. The resulting sediments of cells were fixed in several repeating stages with methanol–acetic acid (3:1 v/v; both obtained from Kemika, Zagreb, Croatia) followed by centrifugation. The final lymphocyte suspension was dropped onto clean microscope slides.
# [3] = test system: human peripheral blood lymphocytes; assay: Lymphocyte proliferation / cytotoxicity (CBPI, RI); format: cell-based; conditions: 24 h, citrinin 7.50 µg/mL, CBD 3.15 µg/mL, bleomycin 1.25 µg/mL
# Description: On the same slides, parameters of cell proliferation, cytostasis and cytotoxicity were studied, according to recommendations by OECD 2023 [67]. For that purpose, the numbers of mono-, bi-, tri-, and quadrinuclear cells (i.e., M1, M2, M3, M4) were scored at 400× magnification using a light microscope (Leitz, Oberkochen, Germany). The total number of M1 to M4 cells counted per experimental group was 3000 (i.e., 6 × 500 cells).
# Based on the scored ratios of M1 to M4 cells, the Cytokinesis-Block Proliferation Index (CBPI) was calculated, using the formula: CBPI = [(No. of mononucleated cells) + (2 × No. of binucleated cells) + (3 × No. of multinucleated cells)]/(Total number of cells).
# To establish the relative number of cell cycles per cell during the period of exposure to cytoB in treated compared to control cultures, the Replication Index (RI) was also calculated according to the formula:RI = {[(<No. binucleated cells> + <2 × No. multinucleated cells>)/(Total number of cells in treated culture)]/[(<No. binucleated cells> + <2 × No. multinucleated cells>) […] (Total number of cells in control culture)]} × 100
# Finally, from the obtained values of RI, the cytotoxicity estimate was deduced, as % Cytotoxicity = […].
substance,measurement,setting,value
bleomycin [Positive Control],"tail intensity, mean value ± SE",[1],14.81 ± 0.59%
same,Distribution of BNMN Cells with 1 MN,[2]; in 6000 BN cells,"99 ^a,b,c,d,e"
same,Distribution of BNMN Cells with 2 MNi,[2]; in 6000 BN cells,"20 ^a,b,c,d,e"
same,Distribution of BNMN Cells with 3 MNi,[2]; in 6000 BN cells,3
same,Distribution of BNNB Cells with 1 NB,[2]; in 6000 BN cells,"85 ^a,b,c,d,e"
same,Distribution of BNNB Cells with 2 NBs,[2]; in 6000 BN cells,"12 ^a,b,c,d,e"
same,Micronuclei (MNi) and BNMN Cells: Total (BNNB)6000,[2]; in 6000 BN cells,"122 ^a,b,c,d,e"
same,Micronuclei (MNi) and BNMN Cells: Total (MNi)6000,[2]; in 6000 BN cells,"148 ^a,b,c,d,e"
same,Nuclear Buds (NBs) and BNNB Cells: Total (BNNB)6000,[2]; in 6000 BN cells,"97 ^a,b,c,d,e"
same,Nuclear Buds (NBs) and BNNB Cells: Total (NBs)6000,[2]; in 6000 BN cells,"109 ^a,b,c,d,e"
same,Nucleoplasmic Bridges (NPBs) and BNNPB Cells: Total (BNNPB)6000,[2]; in 6000 BN cells,"9 ^a,b,c,d,e"
same,Nucleoplasmic Bridges (NPBs) and BNNPB Cells: Total (NPBs)6000,[2]; in 6000 BN cells,"9 ^a,b,c,d,e"
same,Cell Death: Total (Apoptosis)6000,[2]; in 6000 cells,"94 ^a,b,c,d,e"
same,Cell Death: Total (Necrosis)6000,[2]; in 6000 cells,"71 ^a,b,c,d,e"
same,Micronuclei (MNi) and BNMN Cells: Mean (BNMN)1000 ± SD,[2]; per 1000 BN cells,"20.3 ± 2.9 ^a,b,c,d,e"
same,Micronuclei (MNi) and BNMN Cells: Mean (MNi)1000 ± SD,[2]; per 1000 BN cells,"24.7 ± 2.5 ^a,b,c,d,e"
same,Nuclear Buds (NBs) and BNNB Cells: Mean (BNNB)1000 ± SD,[2]; per 1000 BN cells,"16.2 ± 5.0 ^a,b,c,d,e"
same,Nuclear Buds (NBs) and BNNB Cells: Mean (NBs)1000 ± SD,[2]; per 1000 BN cells,"18.2 ± 6.5 ^a,b,c,d,e"
same,Nucleoplasmic Bridges (NPBs) and BNNPB Cells: Mean (BNNPB)1000 ± SD,[2]; per 1000 BN cells,"1.5 ± 0.8 ^a,b,c,d,e"
same,Nucleoplasmic Bridges (NPBs) and BNNPB Cells: Mean (NPBs)1000 ± SD,[2]; per 1000 BN cells,"1.5 ± 0.8 ^a,b,c,d,e"
same,Cell Death: Mean (Apoptosis)1000 ± SD,[2]; per 1000 cells,"15.7 ± 5.6 ^a,b,c,d,e"
same,Cell Death: Mean (Necrosis)1000 ± SD,[2]; per 1000 cells,"11.8 ± 3.6 ^a,b,c,d,e"
same,Cytokinesis-Block Proliferation Index,[3]; 3000 cells scored,"1.60^↓nc, sc, cit, cbd,&"
same,Cytotoxicity (%),[3]; deduced from RI,41.25%
same,Replication Index (%),[3]; relative to negative control,58.75%

# Reference: PMC11679033, “Assessing the Potential Synergistic/Antagonistic Effects of Citrinin and Cannabidiol on SH-SY5Y, HepG2, HEK293 Cell Lines, and Human Lymphocytes” (Toxins, 2024)
